ChEMBL document CHEMBL4184303, “Anti-inflammatory isoflavones and isoflavanones from the roots of Pongamia pinnata (L.) Pierre” (Bioorg Med Chem Lett, 2018)

Columns and labels:
BV-2 [1] = assay: Antiinflammatory activity in mouse BV2 cells assessed as inhibition of LPS-induced nitric oxide production; type: functional, cell-based
BV-2 [2] = assay: Cytotoxicity against mouse BV2 cells at 50 uM by MTT assay; type: cell-based; conditions: bv-2, 50 µM

In the case of `COc1ccc(-c2coc3cc(OCC=C(C)C)ccc3c2=O)cc1`, the IC50 (BV-2 [1]) is reported as 45.2 µM and the Activity (BV-2 [2]) is reported as “Non-Toxic”.
For `CC(C)=CCOc1ccc2c(=O)c(-c3ccc4c(c3)OCO4)coc2c1`, the IC50 (BV-2 [1]) was 46.6 µM and the Activity (BV-2 [2]) was “Non-Toxic”.
For `COc1ccc(-c2coc3c(-c4c(OC)cc([C@@H]5OO[C@@H]5CO)cc4OC)c(O)ccc3c2=O)cc1O`, the IC50 (BV-2 [1]) was 9 µM and the Activity (BV-2 [2]) was “Non-Toxic”.
For `COc1cc(O)c2c(=O)c(-c3cc(OC)c(O)c(O)c3CC=C(C)C)coc2c1`, the IC50 (BV-2 [1]) was 16.5 µM and the Activity (BV-2 [2]) was “Non-Toxic”.
With `COc1ccc(-c2coc3cc(OCC=C(C)C)ccc3c2=O)cc1OC` the IC50 (BV-2 [1]) was 36.9 µM and the Activity (BV-2 [2]) was “Non-Toxic”.
For `COc1ccc(-c2coc3c(OC)c(OCC=C(C)C)ccc3c2=O)cc1`, the IC50 (BV-2 [1]) was 35.7 µM and the Activity (BV-2 [2]) was “Non-Toxic”.
With `COc1cc(-c2coc3cc(O)ccc3c2=O)cc(O)c1-c1c(OC)cc([C@@H]2OO[C@@H]2CO)cc1OC` the IC50 (BV-2 [1]) was 19.7 µM and the Activity (BV-2 [2]) was “Non-Toxic”.
Work on `COc1ccc(-c2coc3cc(OCC=C(C)C)cc(O)c3c2=O)cc1` yielded an IC50 (BV-2 [1]) greater than 50 µM.
For `COc1ccc([C@@H]2COc3cc(O)ccc3C2=O)cc1`, the IC50 (BV-2 [1]) was greater than 50 µM.
In the case of `COc1cc(O)cc(-c2coc3cc(O)ccc3c2=O)c1`, the IC50 (BV-2 [1]) is reported as greater than 50 µM.
`COc1ccc(-c2coc3cc(OCC=C(C)C)cc(O)c3c2=O)cc1OC` gave an IC50 (BV-2 [1]) greater than 50 µM.
`COc1cc(O)c([C@@H]2COc3cc(O)ccc3C2=O)c(OC)c1OC` was tested, and the IC50 (BV-2 [1]) was 35.8 µM and the Activity (BV-2 [2]) was “Non-Toxic”.
For `COc1cc(O)cc(-c2coc3cc(O)c(OC)cc3c2=O)c1`, the IC50 (BV-2 [1]) was greater than 50 µM.
In the case of `COc1ccc([C@@H]2COc3cc(O)ccc3C2=O)c(O)c1`, the IC50 (BV-2 [1]) is reported as 39.8 µM and the Activity (BV-2 [2]) is reported as “Non-Toxic”.
`COc1ccc([C@@]2(O)COc3cc(OC)ccc3C2=O)c(O)c1` was tested, and the IC50 (BV-2 [1]) was greater than 50 µM.
In the case of `COc1cc(-c2coc3cc(O)ccc3c2=O)ccc1O`, the IC50 (BV-2 [1]) is reported as 39.8 µM and the Activity (BV-2 [2]) is reported as “Non-Toxic”.
Compound `COc1cc(-c2coc3cc(O)ccc3c2=O)cc(OC)c1O` has an IC50 (BV-2 [1]) greater than 50 µM.
`COc1cc(-c2coc3cc(O)cc(O)c3c2=O)ccc1O` [3'-O-METHYLOROBOL] gave an IC50 (BV-2 [1]) greater than 50 µM.
For `COc1ccc([C@@H]2COc3cc(O)ccc3C2=O)c(OC)c1` [(3R)-SATIVANONE], the IC50 (BV-2 [1]) was greater than 50 µM.
`COc1ccc([C@@H]2COc3cc(O)ccc3C2=O)c(OC)c1O` [(3R)-VIOLANONE] showed an IC50 (BV-2 [1]) greater than 50 µM.
`O=c1c(-c2ccc(O)cc2)coc2cc(O)ccc12` [DAIDZEIN] was tested, and the IC50 (BV-2 [1]) was greater than 50 µM.
For `C[C@@H]1C[C@H]2[C@@H]3CCC4=CC(=O)C=C[C@]4(C)[C@@]3(F)[C@@H](O)C[C@]2(C)[C@@]1(O)C(=O)CO` [DEXAMETHASONE], the IC50 (BV-2 [1]) was 9.5 µM.
With `COc1cc(-c2coc3c(CC=C(C)C)c(O)c(CC=C(C)C)c(O)c3c2=O)ccc1O` [FLEMINGSIN] the IC50 (BV-2 [1]) was greater than 50 µM.
In the case of `COc1ccc(-c2coc3cc(O)ccc3c2=O)cc1` [FORMONONETIN], the IC50 (BV-2 [1]) is reported as greater than 50 µM.
`O=c1c(-c2ccc(O)cc2)coc2cc(O)cc(O)c12` [GENISTEIN] was tested, and the IC50 (BV-2 [1]) was 28.4 µM and the Activity (BV-2 [2]) was “Non-Toxic”.
`COc1ccc(-c2coc3cc(O)cc(O)c3c2=O)cc1O` [PRATENSEIN] was tested, and the IC50 (BV-2 [1]) was 26.3 µM and the Activity (BV-2 [2]) was “Non-Toxic”.
